Here are results for 1 compound from US11719488B2, “Lyophilization process and a teverelix-TFA lyophilizate obtained thereby” (Antev Limited, priority 2018, dated 2023).

This data set is described as follows: Solubility of teverelix-TFA. The class given is physicochemical.

Counter-ions that a name gives are not always drawn. Non-standard residues stand in square brackets, D forms with d. Residues, ends and D or L forms follow the SMILES beside them. dPhe(4-Cl) = N[C@H](Cc1ccc(Cl)cc1)C(=O)O; d2Nal = N[C@H](Cc1ccc2ccccc2c1)C(=O)O; d(hCit) = NC(=O)NCCCC[C@@H](N)C(=O)O; Lys(iPr) = CC(C)NCCCC[C@H](N)C(=O)O; d3Pal = N[C@H](Cc1cccnc1)C(=O)O

Turning to `CC(=O)N[C@H](Cc1ccc2ccccc2c1)C(=O)N[C@H](Cc1ccc(Cl)cc1)C(=O)N[C@H](Cc1cccnc1)C(=O)N[C@@H](CO)C(=O)N[C@@H](Cc1ccc(O)cc1)C(=O)N[C@H](CCCCNC(N)=O)C(=O)N[C@@H](CC(C)C)C(=O)N[C@@H](CCCCNC(C)C)C(=O)N1CCC[C@H]1C(=O)N[C@H](C)C(N)=O` [Teverelix-TFA, Ac-D-Nal-D-pClPhe-D-Pal-Ser-Tyr-D-Hci-Leu-Lys(iPr)-Pro-D-Ala-NH2] (Ac-[d2Nal][dPhe(4-Cl)][d3Pal]SY[d(hCit)]L[Lys(iPr)]P[dA]-NH2), the solubility in water entry is on record as “very low solubility in water”.
